Reference: PubChem BioAssay AID330 (DTP/NCI, 2004)
Several values for one entry are separate records, joined by “and”; a condition that tells them apart may be missing. Equal values may be shown once. Toxic doses and inconclusive results are not listed. The calls were made as follows: active = survival T/C of 150% or more; inactive = T/C below 125% in these data. Peptide text beside a SMILES is read from it.

Test system: P388 leukemia ip, CD2F1 mice, survival T/C
Experiment: NCI In Vivo Anticancer Drug Screen. Data for tumor model P388 Leukemia (intraperitoneal) in CD2F1 (CDF1) mice
Details: endpoint: median survival time, higher = longer survival
How it was run: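 Mice carrying the transplanted tumor received test compound or vehicle. Survival was recorded in each group, and the value is the treated-group measurement divided by that of the vehicle-treated control group.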

[1] = dose: 50.0 mg/kg/injection, schedule: Q01DX005 (ip), vehicle: saline with Tween-80
[2] = dose: 100.0 mg/kg/injection, schedule: Q04DX003 (ip), vehicle: saline
[3] = dose: 200.0 mg/kg/injection, schedule: Q04DX003 (ip), vehicle: saline
[4] = dose: 50.0 mg/kg/injection, schedule: Q01DX005 (ip), vehicle: Klucel (hydroxypropylcellulose) (HPC)

Measured: T/C

CC(=NC1CCCCC1)c1c(O)oc(C=Nc2ccccc2)c1O
inactive: [1] 100 % of control | dose: 100.0 mg/kg/injection, schedule: Q01DX005 (ip), vehicle: saline with Tween-80 105 % of control | dose: 200.0 mg/kg/injection, schedule: Q01DX005 (ip), vehicle: saline with Tween-80 100 % of control

CCOc1ccc(/C=N/NC(=O)CC2CCCCC2)cc1OC
inactive: dose: 60.0 mg/kg/injection, schedule: Q01DX005 (ip), vehicle: saline with Tween-80 90 % of control | dose: 120.0 mg/kg/injection, schedule: Q01DX005 (ip), vehicle: saline with Tween-80 87 % of control | dose: 240.0 mg/kg/injection, schedule: Q01DX005 (ip), vehicle: saline with Tween-80 95 % of control

CC(C)(CO)CN1CCCCC1
inactive: dose: 50.0 mg/kg/injection, schedule: Q04DX003 (ip), vehicle: saline with Tween-80 100 % of control | dose: 100.0 mg/kg/injection, schedule: Q04DX003 (ip), vehicle: saline with Tween-80 100 % of control | dose: 200.0 mg/kg/injection, schedule: Q04DX003 (ip), vehicle: saline with Tween-80 100 % of control

CC(O)C(N)C(=O)NC(Cc1ccc(O)cc1)C(=O)NC(CCCCN)C(=O)O (stereo not drawn) (H-Thr-Tyr-Lys-OH; configuration not given here)
inactive: dose: 50.0 mg/kg/injection, schedule: Q01DX005 (ip), vehicle: saline 101 % of control | dose: 100.0 mg/kg/injection, schedule: Q01DX005 (ip), vehicle: saline 101 % of control | dose: 200.0 mg/kg/injection, schedule: Q01DX005 (ip), vehicle: saline 106 % of control

CC(=O)c1c(-c2ccc(Cl)cc2)c(-c2ccc(Cl)cc2)nn(CCN)c1=O
inactive: dose: 12.5 mg/kg/injection, schedule: Q01DX005 (ip), vehicle: saline with Tween-80 100 % of control | dose: 25.0 mg/kg/injection, schedule: Q01DX005 (ip), vehicle: saline with Tween-80 98 % of control | [1] 98 % of control and 95 % of control

Nc1nccc2[nH]ccc12
inactive: dose: 12.5 mg/kg/injection, schedule: Q01DX001 (ip), vehicle: saline 103 % of control | dose: 25.0 mg/kg/injection, schedule: Q01DX001 (ip), vehicle: saline 102 % of control | dose: 50.0 mg/kg/injection, schedule: Q01DX001 (ip), vehicle: saline 112 % of control

CCN(CC)CCSC1OC(=O)c2ccccc21 (stereo not given)
inactive: dose: 1.25 mg/kg/injection, schedule: Q01DX009 (ip), vehicle: saline 104 % of control | dose: 2.5 mg/kg/injection, schedule: Q01DX009 (ip), vehicle: saline 103 % of control | dose: 5.0 mg/kg/injection, schedule: Q01DX009 (ip), vehicle: saline 109 % of control | dose: 10.0 mg/kg/injection, schedule: Q01DX009 (ip), vehicle: saline 109 % of control

O=C(NC(C(=O)NC(C(=O)O)C1CC(Cl)=NO1)C1CC(Cl)=NO1)OCC1c2ccccc2-c2ccccc21 (stereo not given)
active: dose: 12.5 mg/kg/injection, schedule: Q04DX003 (ip), vehicle: other 150 % of control | dose: 25.0 mg/kg/injection, schedule: Q04DX003 (ip), vehicle: other 160 % of control | dose: 40.0 mg/kg/injection, schedule: Q04DX003 (ip), vehicle: other 172 % of control | dose: 50.0 mg/kg/injection, schedule: Q04DX003 (ip), vehicle: other 222 % of control | dose: 80.0 mg/kg/injection, schedule: Q04DX003 (ip), vehicle: other 201 % of control | dose: 160.0 mg/kg/injection, schedule: Q04DX003 (ip), vehicle: other 158 % of control
inactive: dose: 5.0 mg/kg/injection, schedule: Q04DX003 (ip), vehicle: other 120 % of control

c1nnc(NCNc2nncs2)s1
inactive: [3] 109 % of control
active: [2] 240 % of control

CC(O)(CO)C(C)(O)C(C)(O)c1cn(O)c(=N)c(C(=O)OCc2ccccc2)n1 (stereo not given)
inactive: [2] 93 % of control | [3] 102 % of control

CCN=P1(N(C(C)C)C(C)C)N(CC)N=NN1C(C)(C)C (stereo not given)
inactive: dose: 1.56 mg/kg/injection, schedule: Q01DX005 (ip), vehicle: Klucel (hydroxypropylcellulose) (HPC) 102 % of control | dose: 3.12 mg/kg/injection, schedule: Q01DX005 (ip), vehicle: Klucel (hydroxypropylcellulose) (HPC) 104 % of control | dose: 6.25 mg/kg/injection, schedule: Q01DX005 (ip), vehicle: Klucel (hydroxypropylcellulose) (HPC) 100 % of control | dose: 12.5 mg/kg/injection, schedule: Q01DX005 (ip), vehicle: Klucel (hydroxypropylcellulose) (HPC) 104 % of control | [4] 111 % of control

COc1ccc(Cc2cc3c(cc2OCC(=O)N(C)C)OCO3)cc1
inactive: [4] 103 % of control | dose: 100.0 mg/kg/injection, schedule: Q01DX005 (ip), vehicle: Klucel (hydroxypropylcellulose) (HPC) 98 % of control | dose: 200.0 mg/kg/injection, schedule: Q01DX005 (ip), vehicle: Klucel (hydroxypropylcellulose) (HPC) 96 % of control

CC(=O)c1ccccc1N=Nc1ccc(N(CCCl)CCCl)cc1C
inactive: dose: 25.0 mg/kg/injection, schedule: Q01DX009 (ip), vehicle: saline with Tween-80 98 % of control | dose: 50.0 mg/kg/injection, schedule: Q01DX009 (ip), vehicle: saline with Tween-80 104 % of control and 108 % of control | dose: 100.0 mg/kg/injection, schedule: Q01DX009 (ip), vehicle: saline with Tween-80 96 % of control | dose: 200.0 mg/kg/injection, schedule: Q01DX009 (ip), vehicle: saline with Tween-80 123 % of control
